Measurements taken from paper PMC5602538, “Assessment of the Drug Interaction Potential of Unconjugated and GalNAc3-Conjugated 2′-MOE-ASOs” (Molecular Therapy. Nucleic Acids, 2017).

Experiments:
CYP2E1 = CYP2E1 (Homo sapiens, UniProt P05181); assay: CYP2E1 inhibition in cryopreserved human hepatocyte suspensions (chlorzoxazone probe)
Protocol: (§1) Preincubations were performed in 50 μL of Williams’ Medium E with 2 mM salicylamide. The salicylamide was included to reduce possible phase II conjugation to the precursor phase I metabolites. […] Human hepatocytes (pooled from 5 donors) were thawed and prepared according to the vendor’s protocol. […] Incubations were carried out at 37°C with 5% CO2. The incubation time was 45 min for phenacetin, diclofenac, dextromethorphan, midazolam, bupropion, chlorzoxazone, and testosterone and 90 min for paclitaxel and (S)-mephenytoin. The reactions were stopped by adding 200 μL of ice-cold acetonitrile (can) with tolbutamide (100 ng/mL) as the internal standard to 100 μL of hepatocyte suspension (1:2, v/v). The 96-well plate was then vortexed at 1,700 rpm for 3 min and centrifuged at 3,500 rpm for 10 min at 20°C. The supernatants were analyzed using liquid chromatography-tandem MS (LC-MS/MS).

CYP2B6 = biological target: T1, CYP2B6 (Homo sapiens, UniProt P20813); assay: biochemical
T1 sequence (P20813 1-491): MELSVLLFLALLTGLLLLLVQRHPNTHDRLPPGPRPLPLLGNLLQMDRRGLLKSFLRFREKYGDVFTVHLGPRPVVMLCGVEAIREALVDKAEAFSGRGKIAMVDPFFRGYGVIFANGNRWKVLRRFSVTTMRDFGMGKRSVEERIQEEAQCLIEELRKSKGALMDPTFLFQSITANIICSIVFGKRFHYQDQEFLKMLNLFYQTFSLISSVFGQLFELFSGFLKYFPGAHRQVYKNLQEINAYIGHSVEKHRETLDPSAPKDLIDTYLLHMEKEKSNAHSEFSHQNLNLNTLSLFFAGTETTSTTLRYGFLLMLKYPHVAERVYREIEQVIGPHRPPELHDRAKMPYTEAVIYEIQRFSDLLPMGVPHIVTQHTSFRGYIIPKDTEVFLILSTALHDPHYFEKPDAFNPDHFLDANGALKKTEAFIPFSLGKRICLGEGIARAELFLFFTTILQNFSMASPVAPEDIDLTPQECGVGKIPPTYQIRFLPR
Protocol: as §1

P-gp = test system: T2, P-gp; assay: P-gp inhibition study in MDCK-MDR1 cells; format: in vitro ADME; settings: human, probe [3H]-quinidine, 100 nM
T2 construct: host or cells: MDCK-MDR1 (MDCK cells stably transfected with MDR1)
Protocol: MDCK-MDR1 cells and MDCK-II cells transfected with BCRP were washed with HBSS at 37°C. Wells of the culture plate served as the apical compartment, and 150 μL of HBSS solutions was added to the apical wells. These solutions also contain one of the following: vehicle (for probe substrate controls), 100 μM test article (for test article inhibition experiments), 1 μM Ko143 (for BCRP inhibition), or 3 μM elacridar (for P-gp inhibition). A 96-well receiver tray was prepared with each well containing 300 μL of buffer solution corresponding to the apical wells. Receiver tray wells served as the basal compartment. The plate and receiver tray were assembled and incubated at 37°C for 30 min. The solution was then aspirated from the apical compartment and the 96-well plate was removed from the receiver tray. […] These samples were counted on a 1450 Microbeta (PerkinElmer). For samples containing test articles, samples were quantitated using LC-MS.
Net basal (B) to apical (A) flux (B→A) of the substrate transport by BCRP and P-gp was calculated by subtracting (A→B) flux from (B→A) flux as: netB→Aflux(pmol/min/cm^2)=(B→A)flux-(A→B)flux.
Percent inhibition was calculated by dividing the net flux (B→A) in the presence of the test article or the reference inhibitor by the net flux (B→A) in the absence of the inhibitor as: %inhibition=100−(100×netfluxwithinhibitor/(meannetflux)withoutinhibitor).

CYP2E1, sequence (P05181 whole entry): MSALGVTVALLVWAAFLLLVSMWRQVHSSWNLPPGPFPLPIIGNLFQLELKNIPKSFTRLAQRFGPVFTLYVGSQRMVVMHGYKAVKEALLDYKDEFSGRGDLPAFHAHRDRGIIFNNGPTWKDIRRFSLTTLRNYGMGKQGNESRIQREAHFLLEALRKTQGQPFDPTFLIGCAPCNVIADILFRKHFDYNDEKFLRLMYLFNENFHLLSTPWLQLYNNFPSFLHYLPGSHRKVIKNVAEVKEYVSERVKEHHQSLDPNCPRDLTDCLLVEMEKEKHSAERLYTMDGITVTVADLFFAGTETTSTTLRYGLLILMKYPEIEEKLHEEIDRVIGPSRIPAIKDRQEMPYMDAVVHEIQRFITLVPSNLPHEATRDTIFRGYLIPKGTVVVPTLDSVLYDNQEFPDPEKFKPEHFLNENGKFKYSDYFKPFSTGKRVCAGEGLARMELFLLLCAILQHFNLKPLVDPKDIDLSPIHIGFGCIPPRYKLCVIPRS

`Cc1ncsc1CCCl` [chlormethiazole] was tested, and the IC50 (CYP2E1) was 0.00108 µM.
`COC(=O)[C@H](c1ccccc1Cl)N1CCc2sccc2C1` [clopidogrel] was tested, and the IC50 (CYP2B6) was 0.163 µM.
For `COc1cc2c(cc1OC)CN(CCc1ccc(NC(=O)c3cccc4c(=O)c5cccc(OC)c5[nH]c34)cc1)CC2` [elacridar], the inhibition at 90 min, 3 μM (P-gp) was 90.2 ± 1.42%.
